Test results: patent US20130324520A1, “RXRG MODULATORS FOR THE TREATMENT OF CANCER” (SLOAN-KETTERING INSTITUTE FOR CANCER RESEARCH, priority 2011, published 2013)
“Also recorded” adds a separate entry of the source. Read-outs that look alike come from different tables or passages of the source.

Legend:
A549 [1] = assay: Drug treatment on cancer cell lines, cell counting; assay type: cell-based; details: for cell growth: KRAS mutant NSCLC A549
Excerpt: (§1) DMSO was used for control.

CCCL-18 = assay: Drug treatment on cancer cell lines, cell counting; assay type: cell-based; details: KRAS mutant colon cancer CCCL-18; dose series
Excerpt: as §1

DU145 = assay: Drug treatment on cancer cell lines, cell counting; assay type: cell-based; details: RB1 mutated prostate cancer
Excerpt: as §1

H209 = assay: Drug treatment on cancer cell lines, cell counting; assay type: cell-based; details: RB1 mutant SCLC
Excerpt: as §1

HCT116 = assay: Drug treatment on cancer cell lines, cell counting; assay type: cell-based; details: for cell growth: KRAS mutant colon cancer HCT116, dose series
Excerpt: as §1

M21 = assay: Drug treatment on cancer cell lines, cell counting; assay type: cell-based; details: BRAF mutated melanoma
Excerpt: as §1

NCI-H1299 = assay: Drug treatment on cancer cell lines, cell counting; assay type: cell-based; details: NRAS mutant large cell lung cancer
Excerpt: as §1

Saos2 = assay: Drug treatment on cancer cell lines, cell counting; assay type: cell-based; details: for cell growth: RB1 mutated osteosarcoma
Excerpt: as §1

U2OS = assay: Drug treatment on cancer cell lines, cell counting; assay type: cell-based; details: RB1 wild type osteosarcoma
Excerpt: as §1

[2] = test system: RB1 mutated retinoblastoma; assay: RXRG ligands on retinoblastoma cell growth; assay type: cell-based; details: for retinoblastoma cell growth: in vitro
Procedure: (§2) Colon, lung, pancreatic cancer, retinoblastoma and other cell lines were cultured in culture medium consisting of IMDM (Medium Lab, MSKCC, NY) with 10% FBS (SH3008803, HyClone, Thermo Scientific), 2 mM glutamine (Invitrogen), 55 μM beta-mercaptoethanol (Invitrogen), 1% Penicillin/streptomycin (Invitrogen), and 2.5 μg/ml Plasmocin (Invivogen), at 37° C. in a humidified incubator with 5% CO2. Melanoma cell lines were culture in RPMI with above additives.
(§3) Colon, lung, pancreatic, breast, prostate cancer cell lines and other cancer cell lines were cultured in 10 cm dishes or 24 well plates with complete IMDM or RPMI (for melanoma) with 30-50% confluence. […] DMSO was used for control. After 3-6 days treatment, cells were collected and counted with trypan blue. Dose-effectiveness curves were generated with series dilution of compounds in medium for treatment of cells.

WERI = test system: WERI
Procedure: as §2, §3

[3] = test system: PTEN mutated prostate cancer, small cell lung cancer, and breast cancer; assay: Drug treatment on cancer cell lines, cell counting (group of lines); assay type: cell-based; details: PTEN mutant lines as a group
Excerpt: as §1

SCLC = assay: as above; assay type: cell-based; details: certain RB1 mutant SCLC
Excerpt: as §1

RXRG in HCT116 = RXRG in HCT116 (Homo sapiens, UniProt P48443)
Procedure: Colon cancer or lung cancer cells were passaged to dishes with coverslips, and incubated in a humidified incubator at 5% CO2 and 37° C. for 1-2 days. The medium was removed and the cells fixed in 4% PFA/PBS for 5 min, gently rinsed with 0.15 M NaCl/20 mM Tris (pH 8.0; TBS), dried, and stored at −20° C. […] After treatment of RXRG ligands or RXRG knockdown, retinoblastoma cells were spread on poly-L-lysine coated slides with medium, and incubated for 3-4 hours before fixation.
Staining with mouse antibodies: Cells were treated with 1 mM EDTA/PBS for 5 min at room temperature and, washed with PBS. […]
Co-staining analyses with other antibodies: On completing the first staining reaction as described above, cells were incubated in block 1 for 20 min, incubated overnight with primary antibody in block 1, washed in PBS, incubated for 30 min in block 1 with Cy3 or Cy5 conjugated secondary antibody, and washed in PBS. […] Mounting Media (Vector Labs), and analyzed by inverted immunofluorescent microscopy (Axioplan2 Imaging, Carl Zeiss MicroImaging, LLC).

[4] = test system: EGFR and KRAS activated NSCLC, pancreatic, and colon cancers; assay: Drug treatment on cancer cell lines, cell counting (group of lines); assay type: cell-based
Excerpt: as §1

H1975 = assay: Cell cycle analysis; assay type: cell-based; details: EGFR mutant NSCLC, day 3
PC931019 = assay: Cell cycle analysis; assay type: cell-based; details: KRAS mutant pancreatic cancer, day 3
Procedure: After drug treatment, cells were collected for cell cycle analysis, RNA isolation, quantitative PCR, western blot, and immunofluorescence. For cell cycle analysis, retinoblastoma, neuroblastoma, lung, pancreatic, and colon cancer cells were collected and dissociated on days 3, 5, 7, 9, 11, and 16 after treatment. Cells were fixed by 70% cold ethanol alcohol while vortex, and put in −20° C. for storage. […] At 24 hours after treatment, 4 ug/ml Aphidicolin was added to cells with compounds for 24 hr. Aphidicolin was removed by centrifugation and PBS wash, and then added to new wells with fresh medium and compounds. Cells were collected and fixed before addition of aphidicolin, immediately after removal of aphidicolin, and every two hours thereafter until 16-18 hours.
The tubes with cells were taken out of the freezer and alcohol was removed by centrifugation. 150 ul of 0.06 mg/ml propidium iodide with 0.1% NF40 was added to the cells, and then 100 ul of 2 mg/ml of RNase was added to the cells. These were mixed well and incubated at 37° C. for 30 min. The cell ploidy according to DNA contents were measured in FACSCalibur with FL3-Width and FL3-Height as the parameter. Flowjo was used for analysis of the cell cycle changes.

Cdh1 in A549 = assay: Cdh1 localisation after treatment; assay type: cell-based; details: lung cancer cells A549
Procedure: Staining with mouse antibodies: Cells were treated with 1 mM EDTA/PBS for 5 min at room temperature and, washed with PBS. Cells were treated with ABC kit reagent A (Vector Laboratories, Burlingame, Calif.) in PBS for 15 min, washed in TBS, treated with ABC kit reagent B (Vector Laboratories) in TBS for 15 min, washed in PBS, blocked and permeabilized for 20 min in block 1 (2.5% horse serum, 2.5% donkey serum, 2.5% human serum, 1% BSA, 0.1% Triton-X-100, and 0.05% Tween-20 in TBS; filtered with 0.22 um filter), incubated in the above mouse primary antibodies in block 1 overnight at 4° C., and washed in PBS. […]

A549 [5] = assay: DAPI staining of treated cells; assay type: cell-based; details: 6 uM, day 1
Procedure: Co-staining analyses with other antibodies: On completing the first staining reaction as described above, cells were incubated in block 1 for 20 min, incubated overnight with primary antibody in block 1, washed in PBS, incubated for 30 min in block 1 with Cy3 or Cy5 conjugated secondary antibody, and washed in PBS. Sections were then stained with 4′,6′-diamino-2-phenylindole (DAPI) in PBS, mounted in [sequence] Mounting Media (Vector Labs), and analyzed by inverted immunofluorescent microscopy (Axioplan2 Imaging, Carl Zeiss MicroImaging, LLC).

[6] = day 3, 6 uM HX531, 10 uM PD98059, 100 nM PD0325901

RXRG in HCT116, sequence (P48443 whole entry): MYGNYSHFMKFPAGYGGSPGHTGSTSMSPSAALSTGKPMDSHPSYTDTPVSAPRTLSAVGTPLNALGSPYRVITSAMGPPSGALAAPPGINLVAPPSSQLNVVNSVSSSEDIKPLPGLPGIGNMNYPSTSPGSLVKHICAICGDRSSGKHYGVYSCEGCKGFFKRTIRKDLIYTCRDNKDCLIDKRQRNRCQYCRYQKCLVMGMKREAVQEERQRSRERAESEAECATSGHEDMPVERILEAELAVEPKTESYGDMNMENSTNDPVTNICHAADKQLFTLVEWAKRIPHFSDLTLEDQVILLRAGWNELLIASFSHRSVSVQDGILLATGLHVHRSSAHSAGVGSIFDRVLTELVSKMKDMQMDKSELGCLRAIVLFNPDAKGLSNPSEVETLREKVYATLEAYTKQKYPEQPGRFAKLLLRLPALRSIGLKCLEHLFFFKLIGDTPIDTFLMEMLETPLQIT

C=C(c1ccc(C(=O)O)cc1)c1cc2c(cc1C)C(C)(C)CCC2(C)C [Bexarotene]
cell growth (A549 [1]): resistant | cell growth (CCCL-18): promotes KRAS mutant colon cancer cell CCCL-18 growth at low dosages | cell growth (DU145): suppressed growth | cell growth (DU145; listed as bexarotene): significantly suppresses | cell growth (H209): suppressed growth | cell growth (HCT116): does not show inhibition; also recorded: slightly promotes the growth; also recorded: slightly promotes KRAS mutant colon cancer cell growth at low dosages; also recorded: did not have good effects | cell growth (M21): suppressed growth | cell growth (M21; listed as bexarotene): significantly suppresses | cell growth (NCI-H1299): did not have good effects | cell growth (Saos2): suppressed growth | cell growth (Saos2; listed as bexarotene): significantly suppresses | cell growth (U2OS): did not have good effects | retinoblastoma cell growth [2]: suppressed retinoblastoma cell growth | retinoblastoma cell growth ([2]; listed as bexarotene): inhibition of RB1 mutant retinoblastoma growth; also recorded: suppressed retinoblastoma cell growth | cell growth (cell number changes) (WERI): suppressed | cell growth (cell number changes) (WERI; retinoblastoma): Growth suppression | cell growth [3]: suppressed growth | cell growth ([3]; listed as bexarotene): significantly suppresses | cell growth (SCLC): significantly suppresses | RXRG localisation (RXRG in HCT116): RXRG cluster formation and nucleolar translocation

CN1c2ccc([N+](=O)[O-])cc2N=C(c2ccc(C(=O)O)cc2)c2cc3c(cc21)C(C)(C)CCC3(C)C [HX531]
cell growth (A549 [1]): inhibition; also recorded: sensitive | growth inhibition, single agent (A549 [1]; [6]): significant growth inhibition | cell growth (CCCL-18): inhibition; also recorded: suppresses KRAS mutant colon cancer CCCL-18 cell growth | cell growth (DU145): growth inhibition is observed | cell growth (H209): growth inhibition is observed | cell growth (HCT116): inhibition; also recorded: dose-dependent; also recorded: suppresses KRAS mutant colon cancer cell growth | growth inhibition, single agent (HCT116; [6]): significant growth inhibition | cell growth (M21): growth inhibition is observed | cell growth (NCI-H1299): growth inhibition is observed | sensitivity of cell lines to treatment (Saos2; HX531 6 uM (FIG. 22)): not sensitive | cell growth (U2OS): growth inhibition is observed | sensitivity of cell lines to treatment ([2]; HX531 6 uM (FIG. 22)): not sensitive | retinoblastoma cell growth [2]: promoted retinoblastoma cell growth at low dosages | sensitivity of cell lines to treatment ([4]; HX531 6 uM (FIG. 22), EGFR, KRAS, NRAS activated): sensitive | cell growth / proliferation ([4]; KRAS or EGFR mutant colon, NSCLC, pancreatic, hepatoma cells, concentration not given): can significantly suppress colon cancer and non-small cell lung cancer proliferation | cell cycle, G1-S transition (H1975): inhibited G1-S transition | cell cycle, G1-S transition (PC931019): similarly sensitive; also recorded: inhibited G1-S transition | Cdh1 localisation (Cdh1 in A549): Cdh1 nuclear translocation | DNA condensation and separation (DAPI staining) (A549 [5]): DNA condensation and separation defects | mitosis (DAPI staining) (A549 [5]): significantly suppressed mitosis; also recorded: significantly reduced mitosis
